From patent US12076331B2, “Inositol derivatives for use in pathological crystallization” (ETH Zurich, priority 2015, dated 2024) come the findings set out here.

“Also recorded” adds a separate entry of the source.

The subject of experiment [1] is transition of primary CPPs to secondary CPPs. Kind of experiment: calciprotein particle (CPP) maturation time in human serum (Pasch test, FIG. 1). To be noted: human pooled serum, 37° C., nephelometer up to 600 minutes. The source says:
The y-axis indicates the half-maximal transition time (T50) in minutes of primary CPPs to secondary CPPs. IP6: myo-inositol hexakisphosphate (Biosynth); IS6: myo-inositol hexakissulfate (Sigma); IP2S4: 4,6-di-(O-phosphate)-myo-inositol 1,2,3,5-tetra-O-sulfate; IT2S4: 4,6-di-(O-thiophosphate)-myo-inositol 1,2,3,5-tetra-O-sulfate; IP5-PEG: 2-PEG(2000)-myo-inositol pentakisphosphate.
(§1) The inventors performed an in vitro assay that measures the propensity for calcification of human serum and has been clinically validated as a predictor of all-cause mortality in CKD patients and renal transplant recipients (as described in Pasch, Journal of the American
Society of Nephrology 23, 1744-1752, 2012). The experiment was carried out by mixing a calcium solution, human pooled serum, the test compound at the final concentration indicated and a phosphate solution, and the transition time of primary to secondary CPPs was measured at 37° C. using a nephelometer for up to 600 minutes.

Experiment [2] has the same test system. In words: CPP maturation time in human serum, similar test with test compounds added last (FIG. 2). To be noted: test compounds added to the reaction mixture last. As to the method: as §1
Society of Nephrology 23, 1744-1752, 2012). […], and the transition time of primary to secondary CPPs was measured at 37° C. using a nephelometer for up to 600 minutes.

The nature of experiment [3]: In-solution screening of CaP precipitation and aggregation in artificial renal tubular fluid (RTF). The format is physicochemical. To be noted: 9 mM phosphate, 8 mM calcium, 4 h. How it is done:
Effects of (A) OEG2-IP5, (B) OEG11-IP5, (C) (OEG2)2-IP4, (D) (OEG11)2-IP4 and (E) OEG8-(IP5)2. on CaP precipitation in RTF spiked with 9 mM disodium phosphate and 8 mM calcium chloride were assessed by light microscopy followed by automated image analysis at t=4 h. Quantification of the total area covered with CaP precipitates/total area field of view (N=3, mean+SD, normalized to the control).
Effects of (A) OEG2-IP5, (B) OEG11-IP5, (C) (OEG2)2-IP4, (D) (OEG11)2-IP4 and (E) OEG8-(IP5)2. on CaP precipitation in RTF spiked with 9 mM disodium phosphate and 8 mM calcium chloride were assessed by light microscopy followed by automated image analysis at t=4 h. Quantification of the mean size of aggregates/field of view normalized to the ctrl (N=3, mean+SD, normalized to the control).
Overview table showing the minimal concentration of compound (FIG. 3 for the chemical structures) required to achieve complete inhibition of CaP precipitation (total area covered with crystals <10% of total area control); and minimal concentration required to prevent CaP crystal aggregation in the CaP screening assay (CaP aggregate size <50% of aggregate size control) (N=3).
An artificial renal tubular fluid (RTF) with a final composition of 0.05 mM oxalate, 0.005 mM sulphate, 408 mM sodium, 424 mM chloride, 0.26 mM potassium, 4 mM magnesium and 0.2 mM citrate in double distilled water was prepared according to a literature report (Fasano, J. M. et al., Kidney Int. 59, 169-178. DOI: 10.1046/j. 1523-1755.2001.00477.x, 2001). The solution was filtered with a 0.45-μm syringe filter. Twenty mM Bis-Tris buffer was added to the reported protocol to ensure pH stability throughout experiments and pH was set to 7.2. The artificial RTF was stored at room temperature for up to four months. Stock solutions of 0.25 M phosphate and 1 M calcium were prepared in double distilled water and were stored separately at −20° C.
Twenty-x final concentration phosphate, 20× final concentration calcium and 10× final concentration compound dilutions were prepared in RTF. Assay mixture consisting of 80% RTF, 10% compound dilution, 5% phosphate dilution and 5% calcium dilution was prepared in Eppendorf tubes as follows. RTF (320 μL) was mixed with 20 μL phosphate dilution (final concentration of 9 mM), 40 μL compound dilution and 20 μL calcium dilution (final concentration of 8 mM). The assay mixture was vortexed after adding each component and 380 μL of the mixture were immediately added to 8-well glass bottom slides and incubated for 4 hat RT. CaP precipitation was assessed using a Leica DM 6000B microscope (Leica Microsystems, Wetzlar, Germany) in brightfield mode. For quantification 3 wells/condition with 3-4 images/well were imaged with a 40× objective. The total area covered with CaP deposits in percentage of the field of view and the mean size of CaP aggregates were determined.
In a first step, the influence of selected IP6 analogues (FIG. 5) on CaP precipitation and growth was assessed in vitro using artificial renal tubular fluid (RTF) (Table 1). In a previous study, the inventors investigated CaP protein particle formation in serum. However, an important difference to cardiovascular calcification lies in the extremely low protein content of the renal tubular fluid vs. the high abundance of proteins in blood, which can stabilize amorphous particles. Two cut-offs were chosen for assessing efficacy. First, complete inhibition was defined as a >90% reduction of detected CaP precipitates compared to the control sample without compound. Second, inhibition of CaP aggregation was defined as a >50% reduction of the mean size of aggregates when compared to the control.

Experiment [4] concerns RPTEC/TERT 1 human proximal tubule cells. In words: Imaging assay of CaP adhesion/deposition and cellular changes on RPTEC monolayers. The experiment is classed as cell-based. To be noted: RPTEC, 7 mM phosphate, 5 mM calcium, 24 h. The source says:
(A) Heatmap and hierarchical clustering of extracted image features. (B) Selected single features describing cellular changes upon increasing (OEG2)2-IP4 concentrations are depicted. Total cell count, dead cell count, single cell area and single cell solidity, a measure of cell compactness, are shown. (C) Selected single features describing changes in the CaP deposition and membrane pattern upon increasing (OEG2)2-IP4 concentrations are depicted. The total area of the binary calcein staining, colorimetric quantification of calcium content extracted from the monolayer, the maximum intensity of the calcein fluorescence, structural similarity index metric (SSIM) and the correlation of the CellMask channel image are shown. (D) Example brightfield, calcein, CellMask and EthD channel images and two zoomed-in regions of interests (ROI) of RPTEC treated with 13 μM (OEG2)2-IP4 are shown. Mean scaled values per individual experiment are plotted (N=3). Pos.ctrl presents treatment with 5/7 mM Ca/P, neg.ctrl presents medium without Ca/P spiking (=1/1 mM Ca/P present in normal cell medium). Mean of three individual experiments and SD is plotted as grey horizontal and vertical line respectively, one-way ANOVA with Dunnet's multiple comparison between each concentration to pos. ctrl was performed (* p<0.01).
RPTEC/TERT 1 monolayers at confluence were treated with medium spiked with 7 mM disodium phosphate, 5 mM calcium chloride and compound and were incubated for 24 h. The amount of CaP deposits and the extent of cell injury were detected by calcein and EthD staining, respectively. Fluorescence images were quantified using Matlab. Quantification of the area covered with CaP deposition on RPTEC monolayers with (A) OEG2-IP5, (B) OEG11-IP5, (C) (OEG2)2-IP4, and (D) OEG8-(IP5)2 treatment. (N=3, mean+SD, one-way ANOVA with Dunnett's multiple comparison, * p<0.05, ** p<0.01, *** p<0.001).
RPTEC/TERT 1 human proximal tubule cells (RPTEC) were cultured in T75 tissue culture flasks using ProxUp basal medium mixed with ProxUp supplements at 37° C. and 5% CO2 according to manufacturer's recommendations. Cells were used up to passage 30 and regularly tested for Mycoplasma infections. For experiments, RPTEC were cultured in 24-well plates at a seeding density of 150′000 cells/cm^2. Cell viability assessment and cell counting before seeding was performed using an automated cell counter (BioRad TC 20, Hercules, CA, USA).
For the comparison of selected IP6 analogues, ProxUp basal medium was prepared with the selected inhibitor and added to each well. Then, CaP precipitation was induced by direct addition of first, phosphate and second, calcium. Final concentrations of 7 mM phosphate and 5 mM calcium were used. Cells were incubated for 24 h at 37° C. and 5% CO2. Spiked medium was removed, and cells were washed twice with PBS before staining.
For staining, ProxUp basal medium was mixed with calcein (500 nM final concentration), EthD (6 μM final concentration), CellMask stain ([…]) and Hoechst 33342. Staining mixture was added to RPTEC and cells were incubated for 30 min in the dark at 37° C. and 5% CO2. Staining solution was removed, cells were washed with PBS once and ProxUp basal medium was added. Cells were immediately imaged after staining. Images were obtained by epifluorescence microscopy at 37° C., using a Leica CTR6000 microscope. For quantification 3 wells/condition were prepared and 3 images/well were taken. For preliminary adhesion experiments images were taken with a 10× objective, for the imaging assay 20× objective images were taken.
Multichannel images were saved as individual channel images in 8-bit tiff format. For analysis Hoechst channel images were thresholded using the triangle threshold. Touching nuclei of the binary image were further segmented using the watershed algorithm with the distance transform of the binary image as input and local maxima thereof as seeds. […]

In the case of “2-PEG(2000)-myo-inositol pentakisphosphate [Compound 2-PEG-IP5]”, in experiment [1], the “activity on half-maximal transition time (T50) of primary CPPs to secondary CPPs” value (“activity on half-maximal transition time” below) is recorded as “far more active than any other compound”.
In the case of `COCCOCCO[C@@H]1C(OP(=O)(O)O)[C@H](OCCOCCOC)[C@@H](OP(=O)(O)O)C(OP(=O)(O)O)[C@H]1OP(=O)(O)O` (stereo partly shown) [INS-3001], in experiment [2], the “activity on transition time of primary to secondary CPPs” value is recorded as “more active than IP6; also recorded: more active than the compounds having one PEG moiety”.
In the case of `O=P(O)(O)OC1C(OS(=O)(=O)O)C(OP(=O)(O)O)C(OS(=O)(=O)O)C(OS(=O)(=O)O)C1OS(=O)(=O)O` (stereo not shown) [IP2S4, 4,6-di-(O-phosphate)-myo-inositol 1,2,3,5-tetra-O-sulfate], the “activity on half-maximal transition time” value in experiment [1] is “more active than IP6”.
Regarding `O=P(O)(O)OC1[C@@H](OP(=O)(O)O)[C@H](OP(=O)(O)O)C(O)[C@H](OP(=O)(O)O)[C@H]1OP(=O)(O)O` (stereo partly shown) [IP5, myo-inositol pentakisphosphate, reference compound], the concentration at which CaP precipitation was promoted in experiment [3] came to 30 µM.
On to `O=P(O)(O)O[C@H]1[C@H](OP(=O)(O)O)[C@@H](OP(=O)(O)O)[C@H](OP(=O)(O)O)[C@@H](OP(=O)(O)O)[C@H]1OP(=O)(O)O` [IP6, myo-inositol hexakisphosphate, reference compound], for which the concentration at which CaP precipitation was promoted in experiment [3] was found to be 10 µM.
In the case of `O=S(=O)(O)OC1C(OS(=O)(=O)O)C(OS(=O)(=O)O)C(OS(=O)(=O)O)C(OS(=O)(=O)O)C1OS(=O)(=O)O` (stereo not shown) [IS6, myo-inositol hexakissulfate, reference compound], in experiment [3], the “effect on CaP precipitation/crystallization in words” value is “weak inhibitory properties”.
As for `O=S(=O)(O)O[C@@H]1[C@@H](OP(O)(O)=S)[C@H](OS(=O)(=O)O)[C@H](OS(=O)(=O)O)[C@H](OS(=O)(=O)O)[C@H]1OP(O)(O)=S` [IT2S4, 4,6-di-(O-thiophosphate)-myo-inositol 1,2,3,5-tetra-O-sulfate], the “activity on half-maximal transition time” value in experiment [1] is reported as “more active than IP6”.
As for `COCCOCCO[C@@H]1[C@@H](OP(=O)(O)O)[C@H](OP(=O)(O)O)[C@@H](OP(=O)(O)O)[C@@H](OP(=O)(O)O)[C@H]1OP(=O)(O)O` [OEG2-IP5], in experiment [3], the “concentration for complete inhibition of CaP precipitation (>90% reduction of CaP precipitates vs control)” value is 30 µM and the “concentration for inhibition of CaP aggregation (>50% reduction of mean size of aggregates vs control)” value was 1 µM. In experiment [4], the “concentration achieving complete inhibition of CaP adhesion” value worked out at 50 µM.
Regarding `COCCOCCOCCOCCOCCOCCOCCOCCOCCOCCOCCO[C@@H]1[C@@H](OP(=O)(O)O)[C@H](OP(=O)(O)O)[C@@H](OP(=O)(O)O)[C@@H](OP(=O)(O)O)[C@H]1OP(=O)(O)O` [OEG11-IP5], the aggregation inhibitory concentration in experiment [3] turned out to be 300 nM. In addition, the “concentration achieving complete inhibition of CaP adhesion” value in experiment [4] was determined as 50 µM.
In the case of “cyclohexane hexacarboxylic acid [IC6, reference compound]”, the “effect on CaP precipitation/crystallization in words” value in experiment [3] is “weak inhibitory properties”.
